Read-outs that look alike come from different tables or passages of the source.
Columns and labels:
[1] = target: T1, human Orexin 1 receptor (Homo sapiens, UniProt O43613); test: Assay A: In vitro testing of OX1R potency: OX1R IP1 (HTRF, CHO-K1/hOX1 cells, Orexin A as agonist); format: cell-based; conditions: for Kb: read-out: OX1R Kb (Orexin A concentration used)
T1 construct: stably expressing the full-length human Orexin 1 receptor; expressed in transfected cells; host or cells: CHO-K1 (CHO-K1/hOX1), co-expressing aequorin
T1 sequence (O43613 1-425): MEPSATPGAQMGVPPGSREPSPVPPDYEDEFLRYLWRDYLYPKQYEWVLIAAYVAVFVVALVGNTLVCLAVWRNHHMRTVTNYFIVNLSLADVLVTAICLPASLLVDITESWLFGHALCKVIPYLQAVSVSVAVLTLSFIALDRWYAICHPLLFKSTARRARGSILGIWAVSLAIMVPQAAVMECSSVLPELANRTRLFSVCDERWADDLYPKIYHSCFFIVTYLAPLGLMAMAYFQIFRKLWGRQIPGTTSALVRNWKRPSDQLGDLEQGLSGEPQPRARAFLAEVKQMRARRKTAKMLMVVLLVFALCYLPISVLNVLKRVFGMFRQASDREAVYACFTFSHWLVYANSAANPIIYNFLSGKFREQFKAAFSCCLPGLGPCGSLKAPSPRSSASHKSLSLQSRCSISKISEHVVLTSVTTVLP

[2] = target: T2, human orexin 2 receptor (Homo sapiens, UniProt O43614); test: Assay B: In vitro testing of OX2R potency: OX2R IP1 (HTRF, CHO-K1/hOX2 cells, Orexin A as agonist); format: cell-based; conditions: Orexin A 0.5 nM
T2 construct: stably expressing the full-length human orexin 2 receptor; expressed in transfected cells; host or cells: CHO-K1 (CHO-K1/hOX2), co-expressing aequorin
T2 sequence (O43614 1-444): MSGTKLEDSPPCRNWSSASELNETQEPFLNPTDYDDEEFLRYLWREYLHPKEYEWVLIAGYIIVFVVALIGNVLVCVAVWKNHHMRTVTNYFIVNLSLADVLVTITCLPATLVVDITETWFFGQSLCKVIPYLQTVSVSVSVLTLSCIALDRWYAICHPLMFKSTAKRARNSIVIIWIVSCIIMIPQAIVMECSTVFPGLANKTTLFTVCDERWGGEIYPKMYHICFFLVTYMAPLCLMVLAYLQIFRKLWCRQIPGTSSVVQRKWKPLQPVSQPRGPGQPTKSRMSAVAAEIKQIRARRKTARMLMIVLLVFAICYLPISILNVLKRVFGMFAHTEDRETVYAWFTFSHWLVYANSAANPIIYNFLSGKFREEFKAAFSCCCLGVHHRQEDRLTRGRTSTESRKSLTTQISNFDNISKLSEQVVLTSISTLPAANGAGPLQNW
Text: Activation of the orexin receptors expressed in cell lines results in an increase in intracellular IP3 concentration. IP1, a downstream metabolite of IP3, accumulates in cells following receptor activation and is stable in the presence of LiCl. Using Homogeneous Time-Resolved Fluorescence technology with Lumi4-Tb cryptate (commercially available from Cisbio Bioassay.) and a suitable fluorescence plate reader. […] Chem. Genomics 2009, 3, 22-32. This technique is used to characterize pharmacological modification of the orexin receptors.
B. In Vitro Testing of OX2R Potency: OX2R IP1
IP1 measurements are performed in CHO-K1 cells stably expressing the full-length human orexin 2 receptor and the aequorin photoprotein. Cells are cultivated in Ham's nutrient mixture F12 medium with 10% fetal calf serum, in a 37° C., 95% humidity and 5% CO2 incubator. The CHO-K1/hOX2 cell mass is expanded to larger cell numbers. The cells are obtained as frozen cells in cryo-vials and stored until use at −150° C. The viability of the cells after thawing is >90%. In preparation for the assay, 24 hours before the assay, the cells are thawed at 37° C. and immediately diluted with cell culture medium. After centrifugation, the cell pellet is resuspended in medium and then distributed into the assay plates with a density of 5000 cells/25 μL per well. The plates are incubated for one hour at room temperature to reduce edge effects before they are incubated for 24 hours at 37° C./5% CO2. Compounds are prepared by a 8-point serial dilution in DMSO and a final dilution step into assay buffer (HBSS with 20 mM HEPES, 0.1% BSA and 50 mM LiCl, pH 7.4) to ensure a final DMSO concentration of 1% in the assay.
On the day of the assay, cells in the plate are washed twice with 60 μL assay buffer (20 μL buffer remained in the wells after washing), followed by adding 5 μL per well of compounds diluted in assay buffer. After 15 minutes of incubation at room temperature 5 μL per well of Orexin A peptide (final concentration: 0.5 nM) dissolved in assay buffer is added to the assay plate. The assay plate is incubated for 60 minutes at 37° C. Then 5 μL per well of Anti-IP1-Cryptate Tb solution and 5 μL per well of IP1-d2 dilution are added to all well of the plate and the plate is incubated for a further 60 minutes light protected at room temperature. The emission at 615 nm and 665 nm (Excitation wavelength: 320 nm) are measured using an EnVision reader (PerkinElmer). The ratio between the emission at 665 nm and 615 is calculated by the reader.
8-point four parametric non-linear curve fitting and determination of IC50 values and Hill slopes is performed using a regular analysis software e.g. AssayExplorer (Accelrys). In order to establish an agonist concentration independent parameter, Kb values are calculated using the following equation: IC50/((2+(A/EC50)n)^1/n−1) (with A=concentration agonist, EC50=EC50 agonist, n=Hill slope agonist) (see P. Leff, I. G. Dougall, Trends Pharmacol. Sci. 1993, 14(4), 110-112).
Kb values from Assay A (OX1R) and Assay B (OX2R) can then provide a selectivity ratio which is independent of the agonist (Orexin A) concentration.

[3] = Assay C: Metabolic stability in human liver microsomes (Human MST); format: in vitro ADME; conditions: pooled human liver microsomes, pH 7.6; human liver microsomes 1 mg/mL, compound 1 μM, 37° C., NADPH; read-out: Human MST t1/2
Experimental: C. Assessment of Metabolic Stability in Human Liver Microsomes (Human MST)
The metabolic stability of the compounds according to the invention may be investigated as follows:
The metabolic degradation of the test compound is assayed at 37° C. with pooled human liver microsomes. The final incubation volume of 100 μL per time point contains TRIS buffer pH 7.6 at room temperature (0.1 M), MgCl2 (5 mM), microsomal protein (1 mg/mL) and the test compound at a final concentration of 1 μM. Following a short pre-incubation period at 37° C., the reactions are initiated by addition of beta-nicotinamide adenine dinucleotide phosphate, reduced form (NADPH, 1 mM), and terminated by transferring an aliquot into solvent after different time points. After centrifugation (10000 g, 5 min), an aliquot of the supernatant is assayed by LC-MS/MS for the amount of parent compound. The half-life (t1/2) is determined by the slope of the semi-logarithmic plot of the concentration-time profile.

SMILES	OX2R Kb/OX1R Kb ([1]; OX1R Kb at 50 nM Orexin A)	Kb ([1]; Orexin A 50 nM) [nM]	Kb [2] [nM]	half-life at 1 μM [3] [min]	OX2R Kb/OX1R Kb ([1]; OX1R Kb at 0.5 nM Orexin A)	Kb ([1]; Orexin A 0.5 nM) [nM]	OX2R Kb/OX1R Kb ([1]; OX1R Kb at 0.5 nM and 50 nM Orexin A)	Kb ([1]; Orexin A 0.5 nM and 50 nM) [nM]
CCN(C(=O)c1cccc(C)c1-c1nnc(C)o1)[C@@H](C)COc1ccc(C(F)(F)F)cn1 [Example 20]	292	0.12	35	20	–	–	–	–
CCN(C(=O)c1cccc(F)c1-c1ncccn1)[C@@H](C)COc1ccc(Br)cn1 [Example 125]	355	0.076	27	> 130	–	–	–	–
CCN(C(=O)c1c(F)cccc1-n1nccn1)[C@@H](C)COc1ncc(C(F)(F)F)cc1F [Example 56]	257	0.42	108	48	98	1.1	–	–
CCN(C(=O)c1ccccc1-c1cnc(OC)nc1)[C@@H](C)COc1ccc(C(F)(F)F)cn1 [Example 79]	58	1.6	92	12	66	1.4	–	–
CCN(C(=O)c1ccc(F)cc1-c1nnc(C)o1)[C@@H](C)COc1ncc(C(F)(F)F)cc1F [Example 55]	–	–	3100	64	430	7.2	–	–
CC[C@@H](CNc1ccc(C(F)(F)F)cn1)N(C)C(=O)c1cc(Cl)ccc1-n1nccn1 [Ex 42 in WO2016/034882, reference compound]	–	–	229	7	–	–	–	–
CCN(C(=O)c1ccc(F)cc1-n1nccn1)[C@@H](C)COc1ccc(Cl)cn1 [Example 28]	–	–	86	39	–	–	51	1.7
CCN(C(=O)c1cccc(Cl)c1-n1nccn1)[C@@H](C)COc1ccc(OC(F)(F)F)cn1 [Example 134]	86	0.14	12	64	–	–	–	–
CCN(C(=O)c1ccccc1-c1ncccn1)[C@@H](C)COc1ccc(Br)cn1 [Example 117]	318	0.11	35	32	194	0.18	–	–
CCN(C(=O)c1ccc(C)cc1-c1nnc(C)o1)[C@@H](C)COc1ccc(OC(F)(F)F)cn1 [Example 121]	293	1.5	440	15	314	1.4	–	–
CCN(C(=O)c1cc(F)cc(F)c1-n1nccn1)[C@@H](C)COc1ncc(C(F)(F)F)cc1F [Example 54]	415	0.66	274	87	277	0.99	–	–
CCN(C(=O)c1c(F)cccc1-n1nccn1)[C@@H](C)COc1ccc(C(F)(F)F)cn1 [Example 94]	211	0.37	78	31	–	–	–	–
CCN(C(=O)c1ccc(F)cc1-c1ncccn1)[C@@H](C)COc1ccc(Br)cn1 [Example 129]	247	0.17	42	30	–	–	–	–
CCN(C(=O)c1ccccc1-n1nccn1)[C@@H](C)COc1ccc(C(F)(F)F)cn1 [Example 10]	117	0.18	21	24	–	–	–	–
CCN(C(=O)c1cccc(F)c1-n1nccn1)[C@@H](C)COc1ccc(Cl)cn1 [Example 114]	98	0.55	54	110	92	0.59	–	–
CCN(C(=O)c1cccc(Cl)c1-n1nccn1)[C@@H](C)COc1ncc(C(F)(F)F)cc1F [Example 49]	333	0.066	22	81	–	–	–	–
CCN(C(=O)c1ccccc1-c1cnnc(C)c1)[C@@H](C)COc1ccc(C(F)(F)F)cn1 [Example 84]	–	–	1290	11	150	8.6	–	–
CCN(C(=O)c1ccc(C#N)cc1-n1nccn1)[C@@H](C)COc1ncc(C(F)(F)F)cc1F [Example 69]	–	–	4340	43	136	32	–	–
CCN(C(=O)c1cc(F)cc(F)c1-n1nccn1)[C@@H](C)COc1ccc(OC(F)(F)F)cn1 [Example 126]	66	0.62	41	62	71	0.58	–	–
CCN(C(=O)c1cc(C#N)ccc1-n1nccn1)[C@@H](C)COc1ccc(C(F)(F)F)cn1 [Example 95]	74	0.5	37	> 130	71	0.52	–	–
CCN(C(=O)c1ccc(F)cc1-c1nnc(C)o1)[C@@H](C)COc1ccc(C(F)(F)F)cn1 [Example 14]	–	–	2070	> 130	461	4.5	–	–
CCN(C(=O)c1ccc(OC)cc1-c1ncccn1)[C@@H](C)COc1ccc(C(F)(F)F)cn1 [Example 118]	2875	0.032	92	15	–	–	–	–
CC[C@@H](CNc1ccc(Cl)cn1)N(C)C(=O)c1cc(C)ccc1-n1nccn1 [Ex 1 in WO2016/034882, reference compound]	–	–	36	5	–	–	–	–
